Source: ChEMBL document CHEMBL5050844 (2019)

How the values were obtained:
[1] = Induction of anti-CD3/CD28 antibodies-stimulated human T cell activation at 10 uM assessed fold increase in GM-CSF secretion measured by ELISA assay; format: functional, T cell line
[2] = Induction of anti-CD3 antibodies-stimulated human exhausted CD8+ T cell activation assessed fold increase in CTLA4 expression measured by flow cytometry analysis; format: functional, T cell line; also: reference of the scale not given here
[3] = Induction of anti-CD3 antibodies-stimulated human T cell activation at 10 uM assessed fold increase in GM-CSF secretion measured by ELISA assay; format: functional, T cell line; also: reference of the scale not given here
[4] = Induction of anti-CD3 antibodies-stimulated human T cell activation at 1 uM assessed fold increase in IL-2 secretion measured by ELISA assay; format: functional, T cell line; also: reference of the scale not given here
[5] = Induction of anti-CD3/CD28 antibodies-stimulated human T cell activation at 1.11 uM assessed fold increase in IFN-gamma secretion measured by ELISA assay; format: functional, T cell line
[6] = Induction of anti-CD3 antibodies-stimulated human exhausted T cell activation assessed fold increase in GM-CSF secretion measured by ELISA assay; format: functional, T cell line; also: reference of the scale not given here
[7] = Induction of anti-CD3/CD28 antibodies-stimulated human T cell activation at 0.3 uM assessed fold increase in CD25 expression measured by ELISA assay; format: functional, T cell line
[8] = Induction of anti-CD3 antibodies-stimulated human CD8+ T cell activation at 10 uM assessed fold increase in cell proliferation measured by flow cytometry analysis; format: functional, T cell line; also: reference of the scale not given here
[9] = Induction of anti-CD3 antibodies-stimulated human CD4+ T cell activation at 10 uM assessed fold increase in CD69 expression measured by flow cytometry analysis; format: functional, T cell line; also: reference of the scale not given here
[10] = Induction of anti-CD3 antibodies-stimulated human exhausted CD4+ T cell activation assessed fold increase in CTLA4 expression measured by flow cytometry analysis; format: functional, T cell line; also: reference of the scale not given here
[11] = target: T1, E3 ubiquitin-protein ligase CBL-B (Homo sapiens, UniProt Q13191); experiment: Inhibition of N-terminal Avi-tagged human CBL-B (36 to 427 residues) incubated with 60 nM Src kinase for 1.5 hrs followed by incubation with fluorescently labeled UbcH5B-Ub for 1 hr and measured by TR-FRET assay; format: single protein
[12] = Induction of anti-CD3 antibodies-stimulated human CD8+ T cell activation at 1.11 uM assessed fold increase in cell proliferation measured by flow cytometry analysis; format: functional, T cell line; also: reference of the scale not given here
[13] = Induction of anti-CD3/CD28 antibodies-stimulated human T cell activation at 10 uM assessed fold increase in IFN-gamma secretion measured by ELISA assay; format: functional, T cell line
[14] = Induction of anti-CD3/CD28 antibodies-stimulated human CD8+ T cell activation at 1.11 uM assessed fold increase in CD69 expression measured by flow cytometry analysis; format: functional, T cell line
[15] = target: T1, E3 ubiquitin-protein ligase CBL-B; experiment: Binding affinity towards N-terminal biotinylated Avi-tagged human CBL-B (36 to 427 residues) measured by surface plasmon resonance assay
[16] = Induction of anti-CD3 antibodies-stimulated human T cell activation at 8 uM assessed fold increase in IL-2 secretion measured by ELISA assay; format: functional, T cell line; also: reference of the scale not given here
[17] = Induction of anti-CD3 antibodies-stimulated human T cell activation at 10 uM assessed fold increase in IFN-gamma secretion measured by ELISA assay; format: functional, T cell line; also: reference of the scale not given here

T1 sequence (Q13191 whole entry, the tested form may be a part): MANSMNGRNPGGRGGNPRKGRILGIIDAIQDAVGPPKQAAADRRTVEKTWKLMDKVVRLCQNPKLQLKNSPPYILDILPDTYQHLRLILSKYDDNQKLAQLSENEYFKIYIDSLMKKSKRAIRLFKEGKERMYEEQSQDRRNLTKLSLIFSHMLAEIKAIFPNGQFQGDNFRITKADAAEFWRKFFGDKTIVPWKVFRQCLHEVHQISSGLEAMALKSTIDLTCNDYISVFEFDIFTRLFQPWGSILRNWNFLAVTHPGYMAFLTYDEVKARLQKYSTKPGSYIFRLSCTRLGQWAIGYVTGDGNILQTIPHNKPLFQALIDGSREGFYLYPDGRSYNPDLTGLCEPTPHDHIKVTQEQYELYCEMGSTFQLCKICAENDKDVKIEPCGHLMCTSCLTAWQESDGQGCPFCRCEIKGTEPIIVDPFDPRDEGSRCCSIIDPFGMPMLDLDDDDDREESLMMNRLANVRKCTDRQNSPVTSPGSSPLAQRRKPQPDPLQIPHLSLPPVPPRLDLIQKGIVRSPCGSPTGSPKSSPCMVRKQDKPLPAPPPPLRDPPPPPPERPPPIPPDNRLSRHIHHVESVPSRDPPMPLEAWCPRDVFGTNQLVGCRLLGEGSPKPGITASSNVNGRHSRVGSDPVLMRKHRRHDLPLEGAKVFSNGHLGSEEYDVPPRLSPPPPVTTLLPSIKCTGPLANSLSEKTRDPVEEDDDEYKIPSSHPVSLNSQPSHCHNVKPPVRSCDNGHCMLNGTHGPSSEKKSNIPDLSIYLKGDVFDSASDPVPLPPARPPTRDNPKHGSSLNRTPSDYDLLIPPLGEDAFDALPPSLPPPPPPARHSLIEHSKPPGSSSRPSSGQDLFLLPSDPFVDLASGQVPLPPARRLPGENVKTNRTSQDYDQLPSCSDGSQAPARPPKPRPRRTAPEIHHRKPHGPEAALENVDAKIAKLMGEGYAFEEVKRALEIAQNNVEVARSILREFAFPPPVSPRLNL

Structure (SMILES) | fold change (FC) [1] | fold change (FC) [2] | fold change (FC) [3] | fold change (FC) [4] | fold change (FC) [5] | fold change (FC) [6] | fold change (FC) [7] | fold change (FC) [8] | fold change (FC) [9] | fold change (FC) [10] | IC50 [11] [nM] | fold change (FC) [12] | fold change (FC) [13] | fold change (FC) [14] | Kd [15] [nM] | fold change (FC) [16] | fold change (FC) [17]
COC1CN(Cc2cc3c(c(C(F)(F)F)c2)CN(c2cccc([C@@](C)(F)C(F)(F)c4nncn4C)c2)C3=O)C1 | 2.01 | >1.61 | 2.01 | 0.151 | <=2 | >1.61 | 1.01 | >4 | >1.601 | >1.61 | < 100 | 3.01 | 2.01 | 1.201 | < 100 | >=0.201 | 3.01
C[C@H](Cc1nncn1C)c1cccc(N2Cc3c(cc(CN4CC(C)(O)C4)cc3C(F)(F)F)C2=O)c1 | >4 | >1.61 | 2.01 | 0.151 | 2.01 | 1.41 | 1.01 | >4 | >1.601 | >1.61 | < 100 | >4 | >4 | 1.201 | < 100 | >=0.201 | <=2
Cn1cnnc1C(F)(F)C(C)(F)c1cccc(N2Cc3c(cc(CN4CC[C@@H](F)C4)cc3C(F)(F)F)C2=O)c1 (single isomer, unassigned) | >4 | >1.61 | 2.01 | >=0.201 | 2.01 | 1.41 | 1.31 | >4 | >1.601 | >1.61 | < 100 | >4 | >4 | 1.201 | < 100 | >=0.201 | <=2
C[C@H](Cc1nncn1C)c1cccc(NC(=O)c2cc3cc(N4CCNCC4)ccc3cn2)c1.Cl | 2.01 | 1.41 | 1.51 | 0.101 | <=2 | <=1.4 | 1.01 | <=2 | 1.401 | 1.41 | < 100 | 2.01 | <=2 | <=1.2 | < 100 | 0.101 | <=2
